{
  "source": "patent EP1628646B1",
  "about": "“USE OF PPAR-GAMMA AGONISTS AS ANTI-INFECTIVE AGENTS” (priority 2003, dated 2004)",
  "key": {"macrophages péritonéaux [1]": {"test_system": "macrophages péritonéaux", "assay": "Phagocytosis of C. albicans by peritoneal macrophages from infected mice treated in vivo", "conditions": "treated i.p. (15d-PGJ2 0,01 µmoles, rosiglitazone 0,1 µmoles), 1 h challenge 1:1", "description": "L'étude in vitro a été réalisée sur des lots de 10 souris, soit immunocompétentes (SWISS) ou immunodéficientes (RAG-2), qui ont été infectées par C. albicans.\n(§1) Les souris hébergées dans des cages stériles ont été infectées par gavage de 500 µl d'une suspension de levures (2.10^7 cfu.ml^-1).\n(§2) Ces injections ont été renouvelées tous les jours durant 5 jours.\nAprès une incubation de 2 heures à l'étuve à 37°C, 5 % CO2, les cellules non adhérentes ont été éliminées par deux rinçages en PBS.\nAfin d'évaluer la capacité des macrophages à phagocyter C. albicans, une technique basée sur l'incorporation de nucléotides radioactifs (Uracile tritié) au niveau de l'ARN des levures en voie de multiplication a été réalisée. Les levures pré-marquées sont déposées sur les tapis macrophagiques et mises à incuber à 37°C sous 5 % CO2. […] Sachant que la radioactivité mesurée dans le lysat est proportionnelle à la quantité de levures phagocytées et que celle mesurée dans les surnageants est proportionnelle à la quantité de levures externes, le pourcentage de levures phagocytées par rapport à la quantité de levures totales sera déterminé selon la formule suivante : %Phagocytose = (dpmlysat)/(dpmlysat + dpmsurnageant) [formula]"}, "C. albicans": {"test_system": "C. albicans", "assay": "Gastrointestinal candidiasis in mice: number of yeasts in organs by CFU and real-time quantitative PCR", "conditions": "SWISS and RAG-2 mice, oesophage, estomac, caecum, vs untreated mice, figure 10", "description": "En parallèle, ce même protocole a été réalisé sur des souris SWISS immunocompétentes (Centre d'élevage - Etablissement Janvier, France).\nas §1, §2\nEn cours et en fin d'expérimentation, des prélèvements sanguins ont été effectués afin de suivre la présence des levures dans le sang des souris. […] Au terme du protocole, les souris ont été euthanasiées et les différents organes ont été prélevés stérilement en vue de quantifier le nombre de levures présentes dans les différents organes par CFU et PCR quantitative en temps réel.\nPour quantifier le nombre de levures présentes dans les différents organes par CFU, après homogénéisation de chaque tissu, plusieurs dilutions sont réalisées et ensemencées dans des boîtes de culture. Les boîtes sont incubées à 35°C pendant 24 à 48 heures et le nombre de colonies est alors compté.\nPour quantifier le nombre de levures présentes dans les différents organes par PCR, après homogénéisation des différents organes, l'ADN total est extrait par la méthode phénol/chloroforme et soumis à une Q-PCR en temps réel. […] La détection se fait par hybridation de deux sondes marquées spécifiques de C. albicans (transfert de fluorescence)."}, "récepteur mannose [2]": {"test_system": "récepteur mannose", "assay": "Mannose receptor expression on macrophages from mice treated in vivo, flow cytometry", "conditions": "cells from SWISS and RAG-2 mice treated in vivo; figure 8", "excerpt": "as §2\nLa quantité de molécule de mBSA fixée, reflet direct de la quantité de récepteurs mannose présente sur les cellules, a été analysée à l'aide d'un cytomètre en flux (FACScalibur, Becton Dickinson)."}, "macrophages [3]": {"test_system": "macrophages", "assay": "Production of oxidants by cultured macrophages, luminol chemiluminescence", "type": "cell-based, souris", "conditions": "for Production d'agents oxydants, avec ANS / Production d'agents oxydants, avec ODN / Production d'agents oxydants, sans antisens: 1 h; for Production d'agents oxydants, avec ANS: macrophages incubated 3 days with non-specific antisense ANS, control 6972 ± 90; for Production d'agents oxydants, avec ODN: macrophages incubated 3 days with specific antisense ODN, control 6795 ± 178; for Production d'agents oxydants, sans antisens: without antisense, control 6737 ± 139", "procedure": "Concernant le traitement à l'antisens ODN, une séquence complémentaire à la région 3' non traduite de l'ARNm du MMR (Yamamoto et al., Infect Immun, 1997, 65:1077-82), on incube l'antisens ODN (100 nM) avec 10 µg de lipide cationique Lipofectin (GIBCO, France) à 37°C pendant 5 min selon la méthode Capacciolis et al. (Biochem Biophys Res Commun, 1998, 197:818-25) puis on l'ajoute aux macrophages cultivés dans le DMEM sans sérum. Les cellules sont incubées pendant 4 heures à 37°C avec 5 % de CO2 atmosphérique. Le milieu est remplacé par du SFM contenant l'antisens ODN mais sans Lipofectin. Les cultures sont incubées pendant 3 jours avec un changement journalier du milieu. La concentration de l'antisens ODN utilisée n'entraîne aucune toxicité significative sur les macrophages. Les macrophages non traités et les macrophages traités avec la Lipofectin seule servent de contrôle. La séquence nucléique de l'antisens ODN est exposée dans le tableau 2. Le même traitement est réalisé avec un antisens non spécifique de l'ARNm du MMR, l'antisens ANS dont la séquence nucléique est exposée dans le tableau 2.\nPour les tests de production d'agents oxydants, l'explosion respiratoire oxygène-dépendante des macrophages traités par les agonistes de PPARγ est mesurée par chimiluminescence. Les macrophages (2.10^5) sont transférés sur des boîtes de culture de 5 mm de diamètre. Après activation des cellules, la production d'agents oxydants par les macrophages, en présence ou en absence de C. albicans, est mesurée par chimiluminescence en présence de luminol à 37°C. L'émission de chimiluminescence est enregistrée en continu pendant 1 heure après incubation des cellules avec le luminol (66 µM). Pour évaluer la production de l'anion superoxyde (O2^-), la chimiluminescence est mesurée en présence de SOD, un inhibiteur spécifique de la production d'anion superoxyde. Pour évaluer la production d'oxyde nitrique (NO), la chimiluminescence est mesurée en présence de la L-NMMA (NG-monométhyl-arginine, un compétiteur spécifique de la L-arginine pour la production de NO). Aucun des inhibiteurs n'affecte la viabilité aux concentrations utilisées.\nLes analyses statistiques se basent sur la mesure de la surface sous la courbe et sont exprimées en coups x secondes.\nLa capacité des macrophages à produire de l'anion superoxyde et du monoxyde d'azote et leur modulation par la 15d-PGJ2 ont été également étudiées par la méthode de chimiluminescence qui permet d'évaluer non seulement la production d'anions superoxydes mais aussi celle du peroxynitrite produit au cours de l'interaction entre le monoxyde d'azote et l'anion superoxyde.\nAfin d'évaluer la production d'anion superoxyde, la chimiluminescence a été mesurée- en présence ou non de SOD (enzyme métabolisant O2^- en H2O2) alors que la production de monoxyde d'azote est évaluée en présence d'un compétiteur de l'arginine qui est la L-NMMA. Tableau 3 : Effet des ligands agonistes de PPARγ sur la production d'agents oxydants par les macrophages en présence ou en absence de levure. L'évaluation de la production d'agents oxydants a été déterminée sur des macrophages en culture par la technique de chimiluminescence.\nCette étude a été réalisée afin de déterminer si l'augmentation de la production d'agents oxydants sous l'effet des agonistes de PPARγ dépendait ou non de la modulation des récepteurs mannose par ces différents traitements. Dans cet objectif, la modulation de la production d'agents oxydants par les macrophages transfectés par l'antisens spécifique des ARNm des récepteurs mannose a été étudiée. Après traitement avec les agonistes de PPARγ, le dosage de la quantité d'agents oxydants produits par les macrophages transfectés a été réalisé par chimiluminescence. Les résultats sont présentés dans le tableau 5. Tableau 5 : Implication du récepteur mannose dans la production d'agents oxydants des macrophages traités par les ligands de PPARγ. […]"}, "macrophages [4]": {"test_system": "macrophages", "assay": "Production of oxidants by macrophages from mice treated in vivo, chemiluminescence", "design": "species or system souris", "conditions": "macrophages from SWISS and RAG-2 mice treated in vivo, vs control mice; figure 7", "source_text": "Afin d'évaluer la production d'agents oxydants (radicaux libres oxygénés et monoxyde d'azote) par les macrophages après la mise en culture des macrophages, les activités conjointes de la NADPH oxydase et de la NOsynthase inductible sont mesurées par chimiluminescence en présence d'une sonde chimiluminogène, Luminol (SIGMA, France) : 5-amino2,3-diydro-1,4-phtalazine-dione. La production de chimiluminescence sera analysée avec un luminomètre (Wallac Victor II, Finlande) piloté par un ordinateur. Le luminol permet, en présence d'agents oxydants, l'émission de photons captés par le photomultiplicateur de la chambre noire du luminomètre thermostaté à 37°C et transformés en impulsions électriques quantifiables. Les valeurs de chimiluminescence seront enregistrées continuellement pendant 1 heure après incubation des cellules avec le luminol ([…]) et en présence ou non de levures.\nL'évaluation de la production d'agents oxydants par les macrophages, en présence ou en absence de la levure, a été déterminée sur des macrophages en culture par la technique de chimiluminescence. La figure 7 expose les résultats obtenus, en nombre de coups secondes (C x S) comptabilisés pendant 1 heure, pour chaque test."}, "cellules RAW 264.7": {"test_system": "cellules RAW 264.7", "assay": "Mannose receptor expression on RAW 264.7 cells transfected with CMV-luciférase or CMV-PPARγ, flow cytometry", "conditions": "24 h, 1 µM 15d-PGJ2, 5 µM ciglitazone, 5 µM rosiglitazone; for Moyenne géométrique de l'intensité de fluorescence, CMV-PPAR-γ: RAW 264.7 transfected with CMV-PPARγ, control 53,87; for Moyenne géométrique de l'intensité de fluorescence, CMV-LUC: RAW 264.7 transfected with CMV-luciférase, control 47,51"}, "macrophages péritonéaux [5]": {"test_system": "macrophages péritonéaux", "assay": "Phagocytosis of [3H]uracil-labelled C. albicans by treated peritoneal macrophages in vitro", "type": "cell-based, souris", "conditions": "effect of the PPARγ antagonist added; figure 2", "description": "Les macrophages, quant à eux, proviennent soit du péritoine de souris femelles SWISS (Centre d'élevage, Etablissement Janvier, France), soit du sang périphérique de donneurs sains. Ces macrophages, de souris ou d'humain, sont cultivés dans un milieu de culture SFM (\"serum-free medium\") optimisé pour la culture des macrophages, commercialisé par la société GibcoBRL, France. L'adhésion des cellules se produit après environ 2 heures de culture à 37°C sous atmosphère à 5 % de CO2. Les cellules n'adhérant pas à la boîte de culture sont éliminées par rinçage au PBS (GibcoBRL, France).\nPour étudier le mécanisme d'ingestion de C. albicans par les macrophages, des levures préalablement marquées par [^3H]uracile sont utilisées. Trois colonies de C. albicans sont dispersées dans 1 ml de bouillon Sabouraud contenant 150 µCi de [^3H]uracile. Après 24 heures de culture à 37°C sous agitation, les blastospores marqués sont centrifugés et resuspendus dans le SFM enrichi avec 1,8 % de glucose. Pour chaque essai, les monocouches de macrophages cultivées sur les plaques 24 puits sont traitées avec les agonistes de PPARγ pendant 20 heures, puis infectées avec C. albicans marqué et viable (dans une proportion macrophages/levures de 1:1) et laissées à incuber pendant 1 heure à 37°C, puis 2 heures à 5°C. Soumis à 5°C, les mécanismes de phagocytose sont bloqués. […]"}, "récepteur mannose [6]": {"test_system": "récepteur mannose", "assay": "Mannose receptor expression on macrophages, FITC-mBSA flow cytometry", "type": "cell-based, souris", "conditions": "antagonist 0,1 µM, 24 h; figure 5", "procedure": "Pour les essais de cytométrie en flux, les macrophages sont rincés au PBS glacé. Le marquage des MMR est réalisé pendant une heure, dans la glace, à la manière d'un ligand spécifique conjugué avec de l'albumine bovine mannosylée marquée à la fluorescéine FITC (840 nM) (SIGMA, France). Afin de faciliter la sélection des populations de cellules viables, une coloration à l'iodure de propidium est réalisée. Toutes les analyses sont effectuées par le FACScalibur (Becton-Dickinson) en utilisant le logiciel CellQuest.\nDans une deuxième étape, l'induction de l'expression du récepteur mannose des macrophages péritonéaux murins sous l'effet des différents traitements a été étudiée par cytométrie de flux en présence d'un antagoniste irréversible de PPARγ, le GW 9662.\nCes résultats sont confirmés par la figure 5 qui montre que l'augmentation de l'expression du récepteur mannose à la surface des macrophages sous l'effet de la 15d-PGJ2 est antagonisée par le GW 9662.\nPour ce faire, les macrophages ont été traités pendant 3 jours avec l'antisens spécifique de l'ARNm du récepteur mannose (ODN). […] Les cellules ont été ensuite incubées avec la mBSA marquée au FITC, puis analysées par cytométrie en flux. L'intensité de la fluorescence analysée est représentée à la figure 6."}},
  "data": [
    {"smiles": "CCCCCC=CC=C1C(=O)C=CC1CC=CCCCC(=O)O", "note": "(centres unmarked) [15d-PGJ2, 15-déoxy-Δ^12,14-prostaglandine J2]", "values": [
      {"measurement": "Index de phagocytose, RAG-2", "setting": "macrophages péritonéaux [1]; RAG-2 mice infected with C. albicans, control 59,82 ± 2,43", "value": "76,32 ± 1,89"},
      {"measurement": "Index de phagocytose, SWISS", "setting": "macrophages péritonéaux [1]; SWISS mice infected with C. albicans, control 42,97 ± 1,20", "value": "65,26 ± 2,11"},
      {"measurement": "colonisation des différents organes (nombre de levures)", "setting": "C. albicans", "value": "diminution significative de la colonisation"},
      {"measurement": "quantité d'albumine bovine mannosylée marquée à la fluorescéine présente sur les macrophages", "setting": "récepteur mannose [2]", "value": "significativement augmentée"},
      {"measurement": "Production d'agents oxydants, avec ANS", "setting": "macrophages [3]", "value": "9678 ± 106", "unit": "coups x secondes"},
      {"measurement": "Production d'agents oxydants, avec ODN", "setting": "macrophages [3]", "value": "7012 ± 98", "unit": "coups x secondes"},
      {"measurement": "Production d'agents oxydants, sans antisens", "setting": "macrophages [3]", "value": "9161 ± 85", "unit": "coups x secondes"},
      {"measurement": "Production d'agents oxydants pendant 1 heure, + Levures L-NMMA", "setting": "macrophages [3]; with yeast, in presence of L-NMMA", "value": "14258 ± 216", "unit": "coups x secondes"},
      {"measurement": "Production d'agents oxydants pendant 1 heure, + Levures SOD", "setting": "macrophages [3]; with yeast, in presence of SOD", "value": "7228 ± 212", "unit": "coups x secondes"},
      {"measurement": "Production d'agents oxydants pendant 1 heure, + Levures", "setting": "macrophages [3]; with yeast, no inhibitor", "value": "13905 ± 328", "unit": "coups x secondes"},
      {"measurement": "Production d'agents oxydants pendant 1 heure, - Levure", "setting": "macrophages [3]; without yeast", "value": "7469 ± 238", "unit": "coups x secondes"},
      {"measurement": "production basale d'agents oxydants par les macrophages", "setting": "macrophages [4]", "value": "la même quantité basale d'agents oxydants"},
      {"measurement": "Moyenne géométrique de l'intensité de fluorescence, CMV-PPAR-γ", "setting": "cellules RAW 264.7", "value": 73},
      {"measurement": "Moyenne géométrique de l'intensité de fluorescence, CMV-LUC", "setting": "cellules RAW 264.7", "value": "44,29"}
    ]},
    {"smiles": "O=C(Nc1ccccc1)c1cc([N+](=O)[O-])ccc1Cl", "note": "[GW 9662]", "values": [
      {"measurement": "augmentation de la capacité de phagocytose des macrophages traités par les agonistes de PPARγ", "setting": "macrophages péritonéaux [5]", "value": "inhibée"},
      {"measurement": "augmentation de l'expression du récepteur mannose à la surface des macrophages sous l'effet de la 15d-PGJ2", "setting": "récepteur mannose [6]", "value": "antagonisée"}
    ]},
    {"smiles": "CC1(COc2ccc(CC3SC(=O)NC3=O)cc2)CCCCC1", "note": "(centres unmarked) [ciglitazone]", "values": [
      {"measurement": "Production d'agents oxydants, avec ANS", "setting": "macrophages [3]", "value": "8322 ± 183", "unit": "coups x secondes"},
      {"measurement": "Production d'agents oxydants, avec ODN", "setting": "macrophages [3]", "value": "7109 ± 155", "unit": "coups x secondes"},
      {"measurement": "Production d'agents oxydants, sans antisens", "setting": "macrophages [3]", "value": "8398 ± 104", "unit": "coups x secondes"},
      {"measurement": "Moyenne géométrique de l'intensité de fluorescence, CMV-PPAR-γ", "setting": "cellules RAW 264.7", "value": "64,3"},
      {"measurement": "Moyenne géométrique de l'intensité de fluorescence, CMV-LUC", "setting": "cellules RAW 264.7", "value": "38,51"}
    ]},
    {"smiles": "CN(CCOc1ccc(CC2SC(=O)NC2=O)cc1)c1ccccn1", "note": "(centres unmarked) [rosiglitazone]", "values": [
      {"measurement": "Production d'agents oxydants, avec ANS", "setting": "macrophages [3]", "value": "8813 ± 190", "unit": "coups x secondes"},
      {"measurement": "Production d'agents oxydants, avec ODN", "setting": "macrophages [3]", "value": "7197 ± 77", "unit": "coups x secondes"},
      {"measurement": "Production d'agents oxydants, sans antisens", "setting": "macrophages [3]", "value": "8960 ± 179", "unit": "coups x secondes"},
      {"measurement": "Moyenne géométrique de l'intensité de fluorescence, CMV-PPAR-γ", "setting": "cellules RAW 264.7", "value": "61,51"},
      {"measurement": "Moyenne géométrique de l'intensité de fluorescence, CMV-LUC", "setting": "cellules RAW 264.7", "value": "37,94"}
    ]}
  ]
}
